According to patent publication US20240415852A1, “ORAL CODELIVERY OF NAVITOCLAX AND Bcl2 siRNA TREATING GASTIC CANCER” (Board of Regents, The University of Texas System, priority 2023, published 2024):

Assays:
[1] = system: adenocarcinoma gastric cell line (AGS); test: Cytotoxicity / cell viability, MTT assay; type: cell-based; details: human, 24 h
Procedure: The cytotoxicity of the nanoparticle formulation was studied using adenocarcinoma gastric cell line (AGS). Cells were grown in F-12K media supplemented with 20% fetal bovine serum at 5% CO2 humidified atmosphere. Cells were harvested using trypsin and 1×10^4 cells with 100 μL of serum free media per well was plated in 96-well plate and incubated for 24 and 48 h. At end of time interval, media was removed and known concentrations of samples 1×PBS, Navi, GADA/Navi, GADA/Navi/Bcl2 siRNA, GADA/Bcl2 siRNA, Navi/Bcl2 siRNA, (Navi 10, 20, 30, 40, and 50 μM and Bcl2 siRNA 20, 40, 60, 80, and 100 nM) and GADA were added to the cells. The plate was then incubated for 24 h and 48 h. Cell viability was measured using MTT cell proliferation assay kit according to manufacturer's instruction. The absorbance of MTT was measured by using a SYNERGY H1 microplate reader (BioTek) at a wavelength of 570 nm and subtracted the background absorbance recorded at 630 nm.
The mitochondrial enzymes are responsible for reducing the tetrazolium salt (MTT) into purple formazan crystals which is indicator of cell viability/cytotoxicity. The therapeutic effect of formulations was carried out by quantifying the cell viability using MTT assay. […]

platelet = details: reported in literature; cited from earlier work

In the case of CC1(C)CCC(c2ccc(Cl)cc2)=C(CN2CCN(c3ccc(C(=O)NS(=O)(=O)c4ccc(N[C@H](CCN5CCOCC5)CSc5ccccc5)c(S(=O)(=O)C(F)(F)F)c4)cc3)CC2)C1 [Navitoclax], the Cell viability [1] is listed as 65.2±5.32% and the “Platelet apoptosis, thrombocytopenia” value (platelet) is listed as “induced platelet apoptosis, resulting in severe thrombocytopenia”.
